From patent US20240166669A1, “QUINAZOLINE AMINE DERIVATIVES AS KRAS INHIBITORS” (Nikang Therapeutics, Inc., priority 2021, published 2024) come the findings set out here.

The test addresses T1, K-Ras G12D (Homo sapiens, UniProt P01116, G12D).
T1 construct: AGS (Cobioer, CBP60476) cell lines which harbor KRAS G12D mutation; host or cells: AGS
Nature of the test: p-ERK Cellular 1-Plate Assay (Biological Example 3). The conditions noted are these: AGS cells (KRAS G12D), 3 h treatment, AlphaLISA p-ERK1/2, 1-plate; Biological Example 3 (values marked *); read-out: AGS PERK EC50. In kind it is cell-based. As to the method: The ability of the compound of Formula (IIA′), (II′), or (II) or a pharmaceutically acceptable salt thereof (test compound) to inhibit K-Ras G12D activity was tested using AGS (Cobioer, CBP60476) cell lines which harbor KRAS G12D mutation as described below.
AGS (Cobioer, CBP60476) were seeded in 384-well plates and cultured overnight (5,000 cells per well, 40 μl total volume). The following morning, cells were treated with test compound, with starting concentration at 10 μM and 3-fold dilution down to 0.5 nM for 3 h at […]. DMSO treatment served as control. pERK was then measured using AlphaLISA SureFire Ultra p-ERK/2 (Thr202/Tyr204) Assay Kit (Perkin Elmer, cat #ALSU-PERK) following the manufacturer's instruction as follows.
Briefly, the culture medium was removed and 10 μl 1× lysis buffer was added to each well, followed by 10 minutes incubation on a plate shaker at room temperature. Acceptor mixture was prepared according to manufacturer's instruction. 5 μl acceptor mixture was added to the cell lysate and the plate was wrapped with foil, spun at 500 rpm for 10s and incubated at RT for 60 min. Donor mixture was prepared under subdued light. 5 μl donor mixture was added to the cell lysate and the plate was spun at 500 rpm for 10s and incubated at RT for another 60 min. in the dark.
On the technique in general: In Alpha technology, singlet oxygen from a donor bead excites a nearby acceptor bead.

T1 sequence (P01116 1-188 isoform P01116-2 G12D): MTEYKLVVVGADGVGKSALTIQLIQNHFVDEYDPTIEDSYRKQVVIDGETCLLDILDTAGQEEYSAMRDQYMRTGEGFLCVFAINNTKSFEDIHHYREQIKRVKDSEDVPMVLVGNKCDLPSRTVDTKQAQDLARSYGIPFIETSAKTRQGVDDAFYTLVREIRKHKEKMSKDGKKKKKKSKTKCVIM

Take `C#Cc1c(F)ccc2cc(O)cc(-c3ncc4c(N5C[C@H]6CC[C@@H](C5)N6)nc(OC[C@@H]5CC(=C)CN5C)nc4c3F)c12` [Example 46, 4-(4-((1R,5S)-3,8-diazabicyclo[3.2.1]octan-3-yl)-8-fluoro-2-(((S)-1-methyl-4-methylenepyrrolidin-2-yl)methoxy)pyrido[4,3-d]pyrimidin-7-yl)-5-ethynyl-6-fluoronaphthalen-2-ol]: the EC50 (in general, the concentration at which the effect is half-maximal) was determined as 5.3 nM.
Then `C#Cc1c(F)ccc2cccc(-c3ncc4c(N5C[C@H]6CC[C@@H](C5)N6)nc(OCC56CC(=C)CN5CC(=C)C6)nc4c3F)c12` [Example 47, 4-((1R,5S)-3,8-diazabicyclo[3.2.1]octan-3-yl)-2-((2,6-dimethylenetetrahydro-1H-pyrrolizin-7a(5H)-yl)methoxy)-7-(8-ethynyl-7-fluoronaphthalen-1-yl)-8-fluoropyrido[4,3-d]pyrimidine], with 52 nM.
